Assay results reported in the NIST ThermoML archive (doi:10.1016/j.jct.2005.05.015).

Settings: Liquid, Twin ebulliometer

CCCCC [pentane]
Settings | vapor or sublimation pressure [kPa]
309.32 K | 101.73
313.85 K | 118.39
320.2 K | 145.3
325.22 K | 169.71
330.84 K | 200.67
335.22 K | 227.66
339.51 K | 256.78
343.32 K | 284.81
346.78 K | 312.35
349.92 K | 338.98
353.48 K | 371.25
356.79 K | 403.22
360.01 K | 436.34
363.24 K | 471.57
366.37 K | 507.7
369.92 K | 551.11
377.19 K | 648.59
384.19 K | 754.18
392.52 K | 895.85
397.8 K | 995.29
402.59 K | 1092.4
406.87 K | 1185.1
412.57 K | 1317.5
416.13 K | 1405.5
417.87 K | 1450
420.09 K | 1508.6
423.75 K | 1608.9
424.62 K | 1633.2
427.09 K | 1704.4
430.44 K | 1804.8
430.68 K | 1812
433.61 K | 1903.7
437.57 K | 2033.2
440.81 K | 2143.7
443.59 K | 2242.6
446.65 K | 2355.2
449.18 K | 2451.9
451.9 K | 2559.3
451.99 K | 2562.8
454.33 K | 2658.6
455.99 K | 2727.7
